Experiments:
[1] = target: T1, ERRγ (Homo sapiens, UniProt P62508); assay: ERRE luciferase reporter assay in HEK293 cells transfected with pcDNA3.1 ERRγ; assay type: cell-based; design: key to EC50 (ERRγ): ***<1 μM; **1-5 μM; *>5 μM; i.a. (inactive); conditions: 24 hours treatment, luciferase activity
T1 construct: expressed in transfected cells; host or cells: HEK293
T1 sequence (P62508 1-458): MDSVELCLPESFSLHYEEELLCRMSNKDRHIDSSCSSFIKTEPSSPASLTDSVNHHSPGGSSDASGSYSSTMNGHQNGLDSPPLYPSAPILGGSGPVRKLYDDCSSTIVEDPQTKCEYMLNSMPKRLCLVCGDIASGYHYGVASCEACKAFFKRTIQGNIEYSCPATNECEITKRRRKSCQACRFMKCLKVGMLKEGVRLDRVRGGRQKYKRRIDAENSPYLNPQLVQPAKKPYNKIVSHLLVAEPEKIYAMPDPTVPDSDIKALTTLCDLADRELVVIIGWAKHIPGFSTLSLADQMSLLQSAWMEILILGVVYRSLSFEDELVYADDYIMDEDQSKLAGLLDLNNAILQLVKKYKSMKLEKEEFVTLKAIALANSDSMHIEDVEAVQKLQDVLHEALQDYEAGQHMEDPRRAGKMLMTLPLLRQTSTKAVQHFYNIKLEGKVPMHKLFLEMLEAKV

[2] = target: T2, ERRα (Homo sapiens, UniProt P11474); assay: ERRE luciferase reporter assay in HEK293 cells transfected with pcDNA3.1 ERRα; assay type: cell-based; design: key to EC50 (ERRα): ***<1 μM; **1-5 μM; *>5 μM; i.a. (inactive); conditions: 24 hours treatment, luciferase activity
T2 construct: expressed in transfected cells; host or cells: HEK293
T2 sequence (P11474 1-423): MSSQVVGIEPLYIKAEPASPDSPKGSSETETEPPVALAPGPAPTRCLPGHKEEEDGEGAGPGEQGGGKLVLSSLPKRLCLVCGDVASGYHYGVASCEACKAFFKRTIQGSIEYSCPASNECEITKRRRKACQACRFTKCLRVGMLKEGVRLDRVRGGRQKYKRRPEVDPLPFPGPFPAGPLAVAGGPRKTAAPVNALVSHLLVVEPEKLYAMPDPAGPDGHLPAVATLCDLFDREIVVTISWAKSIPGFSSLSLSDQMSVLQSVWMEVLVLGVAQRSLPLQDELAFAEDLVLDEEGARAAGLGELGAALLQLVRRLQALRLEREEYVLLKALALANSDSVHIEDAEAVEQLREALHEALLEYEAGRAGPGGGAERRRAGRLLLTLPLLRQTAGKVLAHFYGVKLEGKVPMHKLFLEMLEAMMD

SMILES	EC50 [1] [µM]	EC50 (ERRα) [2]	EC50 (ERRγ) [1]	EC50 [2] [µM]
COc1cccc(C2CC(c3ccc(C(F)(F)F)cc3)=NN2)c1O (stereo not shown) [Entry 64, 2-methoxy-6-(3-(4-(trifluoromethyl)phenyl)-4,5-dihydro-1H-pyrazol-5-yl)phenol]	1 to 5	i.a.		
Oc1ccccc1C1CC(c2ccccc2OC(F)(F)F)=NN1 (stereo not shown) [Entry 4, 2-(3-(2-(trifluoromethoxy)phenyl)-4,5-dihydro-1H-pyrazol-5-yl)phenol]		i.a.	i.a.	
Oc1ccccc1C1CC(c2ccc(Cl)cc2Cl)=NN1 (stereo not shown) [Entry 48, 2-(3-(2,4-Dichlorophenyl)-4,5-dihydro-1H-pyrazol-5-yl)phenol]		i.a.	i.a.	
Oc1cccc(C2CC(c3cccc(F)c3)=NN2)c1 (stereo not shown) [Entry 78, 3-(3-(3-fluorophenyl)-4,5-dihydro-1H-pyrazol-5-yl)phenol]			i.a.	1 to 5
Cc1cccc(C2=NNC(c3ccccc3O)C2)c1 (stereo not shown) [Entry 23, 2-(3-(m-Tolyl)-4,5-dihydro-1H-pyrazol-5-yl)phenol]	1 to 5			< 1
Brc1ccc(C2=NNC(c3ccc(Br)cc3)C2)cc1 (stereo not shown) [Entry 113, 3,5-bis(4-bromophenyl)-4,5-dihydro-1H-pyrazole]		i.a.	i.a.	
Oc1ccc(C2CC(c3ccc(C(F)(F)F)cc3)=NN2)cc1Cl (stereo not shown) [Entry 71, 2-chloro-4-(3-(4-(trifluoromethyl)phenyl)-4,5-dihydro-1H-pyrazol-5-yl)phenol]		i.a.	i.a.	
COc1ccccc1C1=NNC(c2ccccc2O)C1 (stereo not shown) [Entry 53, 2-(3-(2-Methoxyphenyl)-4,5-dihydro-1H-pyrazol-5-yl)phenol]	1 to 5			1 to 5
Oc1cccc(C2=NNC(c3ccc4ccccc4c3)C2)c1 (stereo not shown) [Entry 99, 3-(5-(naphthalen-2-yl)-4,5-dihydro-1H-pyrazol-3-yl)phenol]	1 to 5			1 to 5
Oc1cccc(C2=NNC(c3ccc4cc(O)ccc4c3)C2)c1 (stereo not shown) [Entry 94, 6-(3-(3-hydroxyphenyl)-4,5-dihydro-1H-pyrazol-5-yl)naphthalen-2-ol]			i.a.	1 to 5
FC(F)(F)c1ccc(C2=NNC(c3ccc(Br)cc3)C2)cc1 (stereo not shown) [Entry 114, 5-(4-bromophenyl)-3-(4-(trifluoromethyl)phenyl)-4,5-dihydro-1H-pyrazole]		i.a.	i.a.	
Cc1ccc(C2=NNC(c3ccccc3O)C2)cc1 (stereo not shown) [Entry 28, 2-(3-(p-tolyl)-4,5-dihydro-1H-pyrazol-5-yl)phenol]		i.a.	i.a.	
COc1ccc(C2=NNC(c3ccc(C)cc3O)C2)cc1 (stereo not shown) [Entry 59, 2-(3-(4-methoxyphenyl)-4,5-dihydro-1H-pyrazol-5-yl)-5-methylphenol]	> 5			> 5
Oc1ccccc1C1CC(c2cc(C(F)(F)F)cc(C(F)(F)F)c2)=NN1 (stereo not shown) [Entry 6, 2-(3-(3,5-bis(trifluoromethyl)phenyl)-4,5-dihydro-1H-pyrazol-5-yl)phenol]		i.a.	i.a.	

From patent publication US20260257998A1, “ERR MODULATORS” (University of Health Sciences and Pharmacy in St. Louis, priority 2023, published 2026)
